Data taken from ChEMBL document CHEMBL4184216, “Diversity oriented synthesis of chromene-xanthene hybrids as anti-breast cancer agents” (Bioorg Med Chem Lett, 2018).
Where a name gives a salt, the structure may show the parent alone. Calls of active or inactive are those of the source. The calls are words filed in the database; no cut-off is given here.

How the values were obtained:
MCF7 = test: Cytotoxicity against human MCF7 cells assessed as reduction in cell viability incubated for 24 hrs by MTT assay; assay type: functional, cell-based; conditions: MCF7, 24 h
MDA-MB-231 [1] = test: Cytotoxicity against human MDA-MB-231 cells assessed as reduction in cell viability incubated for 24 hrs by MTT assay; assay type: functional, cell-based; conditions: MDA-MB-231, 24 h
HEK293 = test: Cytotoxicity against HEK293 cells assessed as reduction in cell viability incubated for 24 hrs by MTT assay; assay type: ADME, cell-based; conditions: Homo sapiens, HEK293, 24 h
MDA-MB-231 [2] = test: Cell cycle arrest in human MDA-MB-231 cells assessed as increase in accumulation at subG1 phase at 0.125 uM incubated for 24 hrs by propidium iodide staining based flow cytometry; assay type: functional
MDA-MB-231 [3] = test: Cell cycle arrest in human MDA-MB-231 cells assessed as increase in accumulation at G1 phase at 0.125 to 0.25 uM incubated for 24 hrs by propidium iodide staining based flow cytometry; assay type: functional
MDA-MB-231 [4] = test: Cell cycle arrest in human MDA-MB-231 cells assessed as reduction in accumulation at G2/M phase at 0.125 to 0.25 uM incubated for 24 hrs by propidium iodide staining based flow cytometry; assay type: functional
MDA-MB-231 [5] = test: Induction of apoptosis in human MDA-MB-231 cells at 0.125 to 0.25 uM incubated for 24 hrs by Annexin V-FITC/propidium iodide staining based flow cytometry; assay type: functional, cell-based

Question: Which IC50 (MCF7) does the source give for `COc1ccccc1C1C2=C(Oc3ccc(C[C@H]4COC(C)(C)N4C(=O)OC(C)(C)C)cc31)c1ccccc1OC2(C)C` (stereo not given in full) here?
Answer: 22.3 µM

Question: What about the IC50 (MDA-MB-231 [1]) of the same compound?
Answer: 29 µM

Question: And the IC50 (HEK293)?
Answer: > 25 µM

Question: For `COc1cccc(C2C3=C(Oc4ccc(C[C@@H](CO)NC(=O)OC(C)(C)C)cc42)c2ccccc2OC3(C)C)c1` (stereo not given in full), which IC50 (MCF7) is on record?
Answer: 29.9 µM

Question: What about the IC50 (MDA-MB-231 [1]) of the same compound?
Answer: 2.9 µM

Question: And the IC50 (HEK293)?
Answer: > 25 µM

Question: With `COc1ccc2c(c1)C(c1ccc(SC)cc1)C1=C(O2)c2ccccc2OC1(C)C` (stereo not given) as the compound, how does the IC50 (MCF7) read?
Answer: 20 µM

Question: What about the IC50 (MDA-MB-231 [1]) of the same compound?
Answer: 17.1 µM

Question: And the IC50 (HEK293)?
Answer: > 25 µM

Question: Which IC50 (HEK293) does the source give for `CC/C(=C(\c1ccccc1)c1ccc(OCCN(C)C)cc1)c1ccccc1` [TAMOXIFEN CITRATE] here?
Answer: 30 µM

Question: For `COc1cccc2c1C(c1cccs1)C1=C(S2)c2ccccc2OC1(C)C` (stereo not given), which IC50 (MCF7) is on record?
Answer: 26.3 µM

Question: What about the IC50 (MDA-MB-231 [1]) of the same compound?
Answer: 29 µM

Question: What about the IC50 (HEK293) of the same compound?
Answer: > 25 µM

Question: Which results are given for `COc1ccc(C2C3=C(Sc4ccc(Cl)cc42)c2ccccc2OC3(C)C)cc1` (stereo not given)?
Answer: IC50 (MCF7): 39 µM; IC50 (MDA-MB-231 [1]): 19.1 µM; IC50 (HEK293): > 25 µM

Question: With `COc1ccccc1C1C2=C(Oc3ccc(C[C@H](N)CO)cc31)c1ccccc1OC2(C)C` (stereo not given in full) as the compound, how does the Activity (MDA-MB-231 [2]) read?
Answer: Active

Question: And the IC50 (MCF7)?
Answer: 2.6 µM

Question: What about the IC50 (MDA-MB-231 [1]) of the same compound?
Answer: 2.5 µM

Question: What about the IC50 (HEK293) of the same compound?
Answer: > 25 µM

Question: And the Activity (MDA-MB-231 [3])?
Answer: Active

Question: What about the Activity (MDA-MB-231 [4]) of the same compound?
Answer: Active

Question: And the Activity (MDA-MB-231 [5])?
Answer: Dose-dependent effect

Question: `CC1(C)Oc2ccccc2C2=C1C(c1cccs1)c1cc(Cl)ccc1S2` (stereo not given) was tested. Which IC50 (MCF7) did it give?
Answer: 22.3 µM

Question: What about the IC50 (MDA-MB-231 [1]) of the same compound?
Answer: 29 µM

Question: What about the IC50 (HEK293) of the same compound?
Answer: > 25 µM

Question: For `COc1ccccc1C1C2=C(Sc3ccc(Cl)cc31)c1ccccc1OC2(C)C` (stereo not given), which IC50 (MCF7) is on record?
Answer: 39.5 µM

Question: What about the IC50 (MDA-MB-231 [1]) of the same compound?
Answer: 48.6 µM

Question: What about the IC50 (HEK293) of the same compound?
Answer: > 25 µM

Question: How did the IC50 (MCF7) turn out when `CSc1ccc(C2C3=C(Oc4ccc(C[C@@H](CO)NC(=O)OC(C)(C)C)cc42)c2ccccc2OC3(C)C)cc1` (stereo not given in full) was run?
Answer: 32 µM

Question: What about the IC50 (MDA-MB-231 [1]) of the same compound?
Answer: 21.1 µM

Question: And the IC50 (HEK293)?
Answer: > 25 µM

Question: `COc1cccc(C2C3=C(Oc4ccc(C[C@H](N)CO)cc42)c2ccccc2OC3(C)C)c1` (stereo not given in full) was tested. Which IC50 (MCF7) did it give?
Answer: 2.1 µM

Question: What about the IC50 (MDA-MB-231 [1]) of the same compound?
Answer: 3.5 µM

Question: What about the IC50 (HEK293) of the same compound?
Answer: > 25 µM
